Numbered stars: 1 amine (or outer) side, 2 acyl side, 3 side chain; on linkers, the order of the positions; unused ones are H or OH. Bridge positions count the residues as written; N and C are the ends. Square brackets hold non-standard residues; d marks the D form. Peptide text beside a SMILES is read from it. * marks the point of attachment. ξ: configuration not given here. Phe(4-COOH) = N[C@@H](Cc1ccc(C(=O)O)cc1)C(=O)O; Bip = N[C@@H](Cc1ccc(-c2ccccc2)cc1)C(=O)O; Phe(3-Me) = Cc1cccc(C[C@H](N)C(=O)O)c1; γGlu = O=C(O)[C@H](CCC(=O)[*:2])N[*:1]; 1Nal = N[C@@H](Cc1cccc2ccccc12)C(=O)O; Val(3-OH) = CC(C)(O)[C@H](N)C(=O)O; 4Pal = N[C@@H](Cc1ccncc1)C(=O)O; Cha = N[C@@H](CC1CCCCC1)C(=O)O; Cit = NC(=O)NCCC[C@H](N)C(=O)O; Thr(3ξ) = CC(O)[C@H](N)C(=O)O; Carboxymethyl = O=C(O)C*; Orn = NCCC[C@H](N)C(=O)O; Pra = C#CC[C@H](N)C(=O)O; Aun = NCCCCCCCCCCC(=O)O; Dab = NCC[C@H](N)C(=O)O; Dap = NC[C@H](N)C(=O)O; AEEA = NCCOCCOCC(=O)O

In the test the target is T1, PD-1/PD-L1 interaction (PE-labeled human PD-L1-Ig binding to Jurkat cell line over-expressing human PD-1) (Homo sapiens, UniProt Q15116).
T1 construct: expressed in transfected cells; host or cells: Jurkat
T1 sequence (Q15116 25-288): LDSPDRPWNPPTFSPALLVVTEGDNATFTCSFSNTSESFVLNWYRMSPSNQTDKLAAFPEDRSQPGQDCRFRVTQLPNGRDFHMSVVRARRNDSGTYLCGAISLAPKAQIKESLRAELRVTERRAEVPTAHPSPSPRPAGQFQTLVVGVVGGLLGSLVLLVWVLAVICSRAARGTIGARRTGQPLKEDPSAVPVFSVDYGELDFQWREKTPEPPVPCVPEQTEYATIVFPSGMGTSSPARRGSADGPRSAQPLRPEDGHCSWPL
Description: Jurkat-PD-1 Cell Binding High-Content Screening Assay (CBA). As to conditions: Jurkat cell line over-expressing human PD-1; PE-labeled PD-L1-Ig 20 nM final; read-out: Jurkat hPD1-PDL1 IC50. The class given is cell-based. The procedure, abridged:
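Jurkat-hPD-1 cells, DMEM/10% FCS; cpd 2 h 37° C; PE-PD-L1-Ig 20 nM final, 1 h; 4% PFA fix + Hoechst 33342, 3× dPBS wash; high-content imaging read-out.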
As for `Cc1cccc(C[C@@H]2NC(=O)[C@H](CC(=O)O)NC(=O)[C@H](Cc3ccc(OCC(=O)O)cc3)NC(=O)[C@H](CN)NC(=O)CSC[C@@H](C(=O)N[C@@H](CCN)C(=O)NCCOCCOCC(=O)NCCCCCCCCCCC(=O)O)NC(=O)[C@H](CN)NC(=O)[C@H](C(C)C)NC(=O)[C@H](CC3CCCCC3)NC(=O)[C@H](CCN)NC(=O)[C@@H](CC(C)C)NC(=O)[C@H](CCCN)NC(=O)[C@H](CCCNC(N)=O)NC(=O)[C@H](Cc3ccc(-c4ccccc4)cc3)NC(=O)[C@H](C(C)C)NC2=O)c1` [Compound 2633] ({CH2CO}-[Dap]Y(Carboxymethyl)D[Phe(3-Me)]V[Bip][Cit][Orn][dL][Dab][Cha]V[Dap]C[Dab][AEEA][Aun]-OH; thioether N-14), the IC50 (as a rule, the concentration needed to halve the response being measured) came to 16.4 nM.

`Cc1cccc(C[C@@H]2NC(=O)[C@H](CC(=O)O)NC(=O)[C@H](Cc3ccc(OCC(=O)O)cc3)NC(=O)[C@H](CCCNC(=N)N)NC(=O)CSC[C@@H](C(=O)N[C@@H](CCN)C(=O)NCCCCCCCCCCC(=O)O)NC(=O)[C@H](CCCNC(N)=O)NC(=O)[C@H](C(C)C)NC(=O)[C@H](CC3CCCCC3)NC(=O)[C@H](CCN)NC(=O)[C@@H](CC(C)C)NC(=O)[C@H](CCN)NC(=O)[C@H](C(C)C)NC(=O)[C@H](Cc3ccc(-c4ccccc4)cc3)NC(=O)[C@H](C(C)C)NC2=O)c1` [Compound 3360] ({CH2CO}-RY(Carboxymethyl)D[Phe(3-Me)]V[Bip]V[Dab][dL][Dab][Cha]V[Cit]C[Dab][Aun]-OH; thioether N-14): the IC50 was found to be 8.1 nM.

Take `Cc1cccc(C[C@@H]2NC(=O)[C@H](CC(=O)O)NC(=O)[C@H](Cc3ccc(OCC(=O)O)cc3)NC(=O)[C@H](CCN)NC(=O)CSC[C@@H](C(=O)N[C@@H](CCN)C(=O)NCCOCCOCC(=O)NCCOCCOCC(=O)NCCOCCOCC(=O)NCCCCCCCCCCC(=O)O)NC(=O)[C@H](Cc3cnc[nH]3)NC(=O)[C@H](C(C)(C)O)NC(=O)[C@H](CC3CCCCC3)NC(=O)[C@H](CCN)NC(=O)[C@@H](CC(C)C)NC(=O)[C@H](CCCN)NC(=O)[C@H](Cc3ccc(C(=O)O)cc3)NC(=O)[C@H](Cc3ccc(-c4ccccc4)cc3)NC(=O)[C@H](Cc3ccc(C(=O)O)cc3)NC2=O)c1` [Compound 3772] ({CH2CO}-[Dab]Y(Carboxymethyl)D[Phe(3-Me)][Phe(4-COOH)][Bip][Phe(4-COOH)][Orn][dL][Dab][Cha][Val(3-OH)]HC[Dab][AEEA][AEEA][AEEA][Aun]-OH; thioether N-14): the IC50 was 2.6 nM.

Take `CC[C@H](C)[C@@H]1NC(=O)[C@H](Cc2ccc(-c3ccccc3)cc2)NC(=O)[C@H](C(C)C)NC(=O)[C@H](Cc2cccc(C)c2)NC(=O)[C@H](CC(=O)O)NC(=O)[C@H](Cc2ccc(OCC(=O)O)cc2)NC(=O)[C@H](CN)NC(=O)CSC[C@@H](C(=O)N[C@@H](CCCCN)C(=O)NCCOCCOCC(=O)NCCCCCCCCCCC(=O)O)NC(=O)[C@H](CCCN)NC(=O)[C@H](C(C)C)NC(=O)[C@H](CC2CCCCC2)NC(=O)[C@H](CCN)NC(=O)[C@@H](CC(C)C)NC(=O)[C@H](CCCN)NC1=O` [Compound 2652] ({CH2CO}-[Dap]Y(Carboxymethyl)D[Phe(3-Me)]V[Bip]I[Orn][dL][Dab][Cha]V[Orn]CK[AEEA][Aun]-OH; thioether N-14): the IC50 is 6.1 nM.

Take `CC(C)C[C@H]1NC(=O)[C@H](CCCN)NC(=O)[C@H](Cc2ccc(O)cc2)NC(=O)[C@H](Cc2ccc(-c3ccccc3)cc2)NC(=O)[C@H](C(C)C)NC(=O)[C@H](Cc2cccc3ccccc23)NC(=O)[C@H](CC(=O)O)NC(=O)[C@H](Cc2ccc(OCC(=O)O)cc2)NC(=O)[C@H](CN)NC(=O)CSC[C@@H](C(=O)N[C@@H](CCN)C(=O)NCCOCCOCC(=O)NCCCCCCCCCCC(=O)O)NC(=O)[C@H](CCCN)NC(=O)[C@H](C(C)C)NC(=O)[C@H](CC2CCCCC2)NC(=O)[C@H](CCN)NC1=O` [Compound 1297] ({CH2CO}-[Dap]Y(Carboxymethyl)D[1Nal]V[Bip]Y[Orn][dL][Dab][Cha]V[Orn]C[Dab][AEEA][Aun]-OH; thioether N-14): the IC50 is 24.6 nM.

Consider `Cc1cccc(C[C@@H]2NC(=O)[C@H](CC(=O)O)NC(=O)[C@H](Cc3ccc(C(=O)O)cc3)NC(=O)[C@H](CCCNC(=N)N)NC(=O)CSC[C@@H](C(=O)N[C@@H](CCN)C(=O)NCCCCCCCCCCC(=O)O)NC(=O)[C@H]([C@@H](C)O)NC(=O)[C@H](C(C)C)NC(=O)[C@H](CC3CCCCC3)NC(=O)[C@H](CCN)NC(=O)[C@@H](CC(C)C)NC(=O)[C@H](CCCN)NC(=O)[C@H](Cc3ccc(OCC(=O)O)cc3)NC(=O)[C@H](Cc3ccc(-c4ccccc4)cc3)NC(=O)[C@H](Cc3ccc(OCC(=O)O)cc3)NC2=O)c1` [Compound 2166] ({CH2CO}-R[Phe(4-COOH)]D[Phe(3-Me)]Y(Carboxymethyl)[Bip]Y(Carboxymethyl)[Orn][dL][Dab][Cha]VTC[Dab][Aun]-OH; thioether N-14), for which the IC50 came out at 11.8 nM.

Regarding `CC(C)C[C@H]1NC(=O)[C@H](CCCN)NC(=O)[C@H](C(C)C)NC(=O)[C@H](Cc2ccc(-c3ccccc3)cc2)NC(=O)[C@H](C(C)C)NC(=O)[C@H](Cc2c[nH]c3ccccc23)NC(=O)[C@H](CC(=O)O)NC(=O)[C@H](Cc2ccc(OCC(=O)O)cc2)NC(=O)[C@H](CN)NC(=O)CSC[C@@H](C(=O)N[C@@H](CCN)C(=O)NCCOCCOCC(=O)N[C@@H](CCC(=O)NCCCCCCCCCCC(=O)O)C(=O)O)NC(=O)[C@H](CN)NC(=O)[C@H](C(C)O)NC(=O)[C@H](CC2CCCCC2)NC(=O)[C@H](CCN)NC1=O` (stereo partly drawn) [Compound 3649] ({CH2CO}-[Dap]Y(Carboxymethyl)DWV[Bip]V[Orn][dL][Dab][Cha][Thr(3ξ)][Dap]C[Dab][AEEA][γGlu][Aun]-OH; thioether N-14), the IC50 came out at 7.5 nM.

As for `C#CC[C@H](NC(=O)COCCOCCNC(=O)[C@H](CCCN)NC(=O)[C@@H]1CSCC(=O)N[C@@H](Cc2ccncc2)C(=O)N[C@@H](Cc2ccc(OCC(=O)O)cc2)C(=O)N[C@@H](CC(=O)O)C(=O)N[C@@H](Cc2c[nH]c3ccccc23)C(=O)N[C@@H](C(C)C)C(=O)N[C@@H](Cc2ccc(-c3ccccc3)cc2)C(=O)N[C@@H]([C@@H](C)CC)C(=O)N[C@@H](CCCN)C(=O)N[C@H](CC(C)C)C(=O)N[C@@H](CCN)C(=O)N[C@@H](CC(C)C)C(=O)N[C@@H](C(C)C)C(=O)N[C@@H]([C@@H](C)O)C(=O)N1)C(=O)N[C@@H](CCN)C(=O)NCCCCCCCCCCC(=O)O` [Compound 1200] ({CH2CO}-[4Pal]Y(Carboxymethyl)DWV[Bip]I[Orn][dL][Dab]LVTC[Orn][AEEA][Pra][Dab][Aun]-OH; thioether N-14), the half-maximal inhibitory concentration (IC50) is 15.6 nM.

For the compound `Cc1cccc(C[C@@H]2NC(=O)[C@H](CC(=O)O)NC(=O)[C@H](Cc3ccc(O)cc3)NC(=O)[C@H](CC(N)=O)NC(=O)CSC[C@@H](C(=O)N[C@@H](CCCN)C(=O)NCCCCCCCCCCC(=O)O)NC(=O)[C@H](CCC(N)=O)NC(=O)[C@H](C(C)C)NC(=O)[C@H](CC(C)C)NC(=O)[C@H](CCN)NC(=O)[C@@H](CC(C)C)NC(=O)[C@H](CCCN)NC(=O)[C@H](CCCNC(N)=O)NC(=O)[C@H](Cc3ccc(-c4ccccc4)cc3)NC(=O)[C@H](C(C)C)NC2=O)c1` [Compound 2790] ({CH2CO}-NYD[Phe(3-Me)]V[Bip][Cit][Orn][dL][Dab]LVQC[Orn][Aun]-OH; thioether N-14), the IC50 stood at 71.1 nM.

With `Cc1cccc(C[C@@H]2NC(=O)[C@H](CC(=O)O)NC(=O)[C@H](Cc3ccc(OCC(=O)O)cc3)NC(=O)[C@H](C(C)O)NC(=O)CSC[C@@H](C(=O)N[C@@H](CCC(=O)O)C(=O)N[C@@H](CO)C(=O)NCCCCCCCCCCC(=O)O)NC(=O)[C@H](C(C)O)NC(=O)[C@H](C(C)C)NC(=O)[C@H](CC3CCCCC3)NC(=O)[C@H](CCN)NC(=O)[C@@H](CC(C)C)NC(=O)[C@H](CCCN)NC(=O)[C@H](CCCNC(N)=O)NC(=O)[C@H](Cc3ccc(-c4ccccc4)cc3)NC(=O)[C@H](C(C)C)NC2=O)c1` (stereo partly drawn) [Compound 3567] ({CH2CO}-[Thr(3ξ)]Y(Carboxymethyl)D[Phe(3-Me)]V[Bip][Cit][Orn][dL][Dab][Cha]V[Thr(3ξ)]CES[Aun]-OH; thioether N-14), the IC50 came out at 33.5 nM.

Turning to `Cc1cccc(C[C@@H]2NC(=O)[C@H](CC(=O)O)NC(=O)[C@H](Cc3ccc(OCC(=O)O)cc3)NC(=O)[C@H](CCCNC(=N)N)NC(=O)CSC[C@@H](C(=O)N[C@@H](CCN)C(=O)NCCCCCCCCCCC(=O)O)NC(=O)[C@H](CCC(N)=O)NC(=O)[C@H](C(C)C)NC(=O)[C@H](CC3CCCCC3)NC(=O)[C@H](CCN)NC(=O)[C@@H](CC(C)C)NC(=O)[C@H](CCCN)NC(=O)[C@H](C(C)(C)O)NC(=O)[C@H](Cc3ccc(-c4ccccc4)cc3)NC(=O)[C@H](Cc3ccc(OCC(=O)O)cc3)NC2=O)c1` [Compound 2140] ({CH2CO}-RY(Carboxymethyl)D[Phe(3-Me)]Y(Carboxymethyl)[Bip][Val(3-OH)][Orn][dL][Dab][Cha]VQC[Dab][Aun]-OH; thioether N-14), the IC50 amounted to 11.6 nM.

In the case of `CC(C)C[C@H]1NC(=O)[C@H](CCCN)NC(=O)[C@H](CCCNC(N)=O)NC(=O)[C@H](Cc2ccc(-c3ccccc3)cc2)NC(=O)[C@H](C(C)C)NC(=O)[C@H](Cc2c[nH]c3ccccc23)NC(=O)[C@H](CC(=O)O)NC(=O)[C@H](Cc2ccc(OCC(=O)O)cc2)NC(=O)[C@H](C(C)O)NC(=O)CSC[C@@H](C(=O)N[C@H](CCC(N)=O)C(=O)NCCCCCCCCCCC(=O)O)NC(=O)[C@H](C(C)O)NC(=O)[C@H](C(C)C)NC(=O)[C@H](CC2CCCCC2)NC(=O)[C@H](CCN)NC1=O` (stereo partly drawn) [Compound 3446] ({CH2CO}-[Thr(3ξ)]Y(Carboxymethyl)DWV[Bip][Cit][Orn][dL][Dab][Cha]V[Thr(3ξ)]C[dQ][Aun]-OH; thioether N-14), the IC50 came out at 65.2 nM.

The values above are taken from patent US20260022142A1, “MACROCYCLIC IMMUNOMODULATORS” (Bristol-Myers Squibb Company, priority 2022, published 2026).
